According to paper PMC10495264 (Nature Cell Biology, 2023):
Where “and” joins values, the source holds several entries; their conditions need not be identical. Identical values can stand only once.

Columns and labels:
AMPK = AMPK and ACC1 phosphorylation immunoblot; assay type: cell-based, human; details: relative to DMSO
Procedure: (§1) For standard SDS–PAGE and immunoblotting experiments, cells from a well of a 12-well plate were lysed in 250 μl of ice-cold Triton lysis buffer (50 mM Tris pH 7.5, 1% Triton X-100, 150 mM NaCl, 50 mM NaF, 2 mM Na-vanadate and 0.011 g ml^−1 β-glycerophosphate) supplemented with 1×PhosSTOP phosphatase inhibitors (cat. no. 4906837001, Roche) and 1×cOmplete protease inhibitors (cat. no. 11836153001, Roche) for 10 min on ice. The samples were clarified by centrifugation (20,000g, 15 min, 4 °C) and the supernatants were boiled in 1×SDS sample buffer (5×SDS sample buffer: 350 mM Tris–HCl pH 6.8, 30% glycerol, 600 mM DTT, 12.8% SDS and 0.12% bromophenol blue). The band intensities were quantified using the ImageJ software.
(§2) Data in graphs are shown as the mean ± s.e.m. *P < 0.05, **P < 0.005. Source numerical data and unprocessed blots are provided. Source data

ERK1/2 = ERK1/2 phosphorylation immunoblot; assay type: cell-based, human; details: ED Fig. 5k; relative to DMSO
Procedure: as §1, §2

[1] = test system: mTOR lysosomal localization; assay: Co-localization of mTOR with LAMP2, confocal microscopy; assay type: cell-based, human
mTORC2 = mTORC2 activity in HEK293FT cells, p-AKT^S473/AKT immunoblot; assay type: cell-based, human
Procedure: Phosphorylation of Ypk1 was used as the TORC2 readout. Phosphorylation of Snf1 was used as the AMPK activation readout. Total Snf1 was detected with an antibody to a histidine (His) stretch in Snf1. […] Source numerical data and unprocessed blots are provided. Source data
(§3) Amino-acid-starvation experiments were carried out as described before[42],[43]. […] For the lipid depletion experiments, cells were cultured in medium containing 10% charcoal-stripped FBS (A3382101, Thermo Fisher Scientific), instead of full FBS, for 24 h before treatments with FASN inhibitors were performed. For FA supplementation, each FA was first conjugated to 10% FA-free BSA (fraction V; cat. no. 10735086001, Roche) for 1 h at 50 °C in a 50:50 volumetric ratio. The BSA-conjugated C16:0, C16:1, C18:1 and C18:2 FAs (100 μM) were then added to the media both 16 h previous to and at the start of the treatment with FASN inhibitors.
as §1

mTORC1 [2] = assay: mTORC1 activity in mouse embryonic fibroblasts (MEFs), p-S6K^T389/S6K immunoblot; assay type: cell-based
mTORC1 [3] = assay: mTORC1 activity in U2OS cells, immunoblot; assay type: cell-based, human; details: Fasnall 25 μM 30 min; cerulenin 50 μM 2 or 4 h
mTORC1 [4] = assay: mTORC1 activity in HEK293FT cells (WT and knockout lines), phosphorylation of S6K, 4E-BP1, Grb10, TFEB by immunoblot; assay type: cell-based, human; details: for p-S6K(T389)/S6K: Replicates 1-3, DMSO = 1 (ED Fig. 8h)
Procedure: Data represent the median fluorescence intensity of OPP Alexa Fluor 488; n = 6 biological replicates from two independent experiments. b,c,e,g,i,k,l, Data are the mean ± s.e.m. *P < 0.05, **P < 0.005, ***P < 0.0005. […] Source numerical data and unprocessed blots are provided. Source data
as §3, §1

mTORC1 [5] = assay: mTORC1 activity in HEK293T cells (WT, AMPKα1/2 KO, DEPDC5 and RagA/B triple KO), p-S6K^T389/S6K immunoblot; assay type: cell-based, human
Procedure: Source numerical data and unprocessed blots are provided. Source data
as §1
Data in graphs are shown as the mean ± s.e.m. *P < 0.05, **P < 0.005, ***P < 0.0005. Source numerical data and unprocessed blots are provided. Source data

[6] = Fasnall 25 μM 30 min, cerulenin 50 μM 4 h

For `Cc1sc2ncnc(NC3CCN(Cc4ccccc4)C3)c2c1C` (stereo not shown) [Fasnall], the “p-AMPK(T172)/AMPK, Mean” value (AMPK; ED Fig. 5b) was 4.063, the “p-ACC1(S79)/ACC1, Mean” value (AMPK; ED Fig. 5c) was 2.603 and the “p-ERK(T202/Y204)/ERK, Mean” value (ERK1/2) was 0.525. For the same molecule, the “mTOR/LAMP2 colocalization (Manders' coefficient)” value ([1]; Fasnall 30', Replicate 2, individual cells (ED Fig. 8b)) was 0.475 and 0.399 and 0.259 and 0.343 and 0.372 and 0.439 and 0.359 and 0.413 and 0.403 and 0.14 and 0.1 and 0.291 and 0.207 and 0.085 and 0.364 and 0.524 and 0.395 and 0.22 and 0.281 and 0.339 and 0.627 and 0.352 and 0.483 and 0.276 and 0.195 and 0.511 and 0.191, the “mTOR/LAMP2 colocalization (Manders' coefficient)” value ([1]; Fasnall 30', Replicate 4, individual cells (ED Fig. 8b)) was 0.446 and 0.648 and 0.366 and 0.481 and 0.313 and 0.232 and 0.1 and 0.151 and 0.321 and 0.261 and 0.549 and 0.486 and 0.59 and 0.448 and 0.288 and 0.329 and 0.377 and 0.426 and 0.197 and 0.422 and 0.449 and 0.465 and 0.297 and 0.542 and 0.319 and 0.458 and 0.212 and 0.351 and 0.306 and the “mTOR/LAMP2 colocalization (Manders' coefficient), Mean” value (“mTOR/LAMP2 colocalization … Mean” below) ([1]; Fasnall 30', mean of pooled individual cells (ED Fig. 8b), DMSO mean 0.568258) was 0.3868. The “mTOR/LAMP2 colocalization (Manders' coefficient)” value ([1]; Fasnall 60', Replicate 2, individual cells (ED Fig. 8b)) was 0.202 and 0.487 and 0.43 and 0.287 and 0.399 and 0.342 and 0.295 and 0.326 and 0.268 and 0.605 and 0.328 and 0.333 and 0.315 and 0.375 and 0.636 and 0.498 and 0.603 and 0.513 and 0.443, the “mTOR/LAMP2 colocalization (Manders' coefficient)” value ([1]; Fasnall 60', Replicate 4, individual cells (ED Fig. 8b)) was 0.425 and 0.202 and 0.399 and 0.49 and 0.499 and 0.282 and 0.303 and 0.344 and 0.361 and 0.405 and 0.518 and 0.461 and 0.434 and 0.504 and 0.271 and 0.298 and 0.295 and 0.41 and 0.416 and 0.567 and 0.365 and 0.689 and 0.431 and 0.398 and 0.488 and the “mTOR/LAMP2 colocalization … Mean” value ([1]; Fasnall 60', mean of pooled individual cells (ED Fig. 8b), DMSO mean 0.568258) was 0.4158. For the same molecule, the “mTOR localization at lysosomes (co-localization with LAMP2)” value ([1]; HEK293FT, 25 μM Fasnall or 50 μM cerulenin) was “significant dissociation”, the “mTOR/LAMP2 colocalization … Mean” value ([1]; Luc-expressing cells, Fasnall 30' (ED Fig. 8j), Luc DMSO mean 0.429851) was 0.3242 and the “mTOR/LAMP2 colocalization … Mean” value ([1]; RagA(QL)/C(SN)-expressing cells, Fasnall 30' (ED Fig. 8j), DMSO mean 0.528308) was 0.4688. For the same molecule, the “p-AKT(S473)/AKT, Mean” value (mTORC2; 25 μM Fasnall 30 min, DMSO = 1, n = 4, Fig. 3b) was 1.017, the “phosphorylation of Akt (mTORC2 substrate)” value (mTORC2; [6]) was “did not significantly alter” and the “p-S6K(T389)/S6K, Mean” value (mTORC1 [2]; ED Fig. 4b, relative to DMSO) was 0.4247. For the same molecule, the “mTORC1 activity in MEFs” value (mTORC1 [2]; Fasnall 25 μM 30 min, cerulenin 50 μM 2 or 4 h) was “downregulates”, the “mTORC1 activity in U2OS” value (mTORC1 [3]) was “downregulates” and the “p-Grb10(S476)/Grb10, Mean” value (mTORC1 [4]; ED Fig. 3b, relative to DMSO) was 0.4881. For the same molecule, the “p-TFEB(S211)/TFEB, Mean” value (mTORC1 [4]; ED Fig. 3c, relative to DMSO) was 0.3867, the “p-S6K(T389)/S6K, Mean” value (mTORC1 [4]; ED Fig. 4n, relative to DMSO) was 0.2327 and the “mTORC1 activity towards Grb10 and TFEB (cerulenin: also 4E-BP1)” value (mTORC1 [4]; [6]) was “downregulates”. For the same molecule, the “mTORC1 activity (phosphorylation of S6K, 4E-BP1, Grb10 and TFEB)” value (mTORC1 [4]; HEK293FT cells, Fasnall, cerulenin or siFASN) was “suppressed”, the “p-S6K(T389)/S6K, Mean” value (mTORC1 [4]; HEK293FT expressing FLAG-ACC1 S79A, Fasnall 25 μM, 30 min, respective DMSO = 1, Fig. 4b) was 0.3193 and the “p-S6K(T389)/S6K, Mean” value (mTORC1 [4]; HEK293FT expressing FLAG-ACC1 WT, Fasnall 25 μM, 30 min, respective DMSO = 1, Fig. 4b) was 0.6407. The “p-S6K(T389)/S6K, Mean” value (mTORC1 [4]; HEK293FT expressing FLAG-Luc, Fasnall 25 μM, 30 min, respective DMSO = 1, Fig. 4b) was 0.6832, the “p-S6K(T389)/S6K, Mean” value (mTORC1 [4]; HEK293FT, 25 μM Fasnall 30', DMSO = 1, n = 6, Fig. 2g) was 0.526 and the “p-S6K(T389)/S6K, Mean” value (mTORC1 [4]; HEK293FT, 25 μM Fasnall 60', DMSO = 1, n = 6, Fig. 2g) was 0.5445. The “p-S6K(T389)/S6K, Mean” value (mTORC1 [4]; Luc-expressing cells, Fasnall 30', DMSO = 1 (ED Fig. 8h)) was 0.4328, the “p-S6K(T389)/S6K” value (mTORC1 [4]; Luc-expressing cells, Fasnall 30') was 0.4633 and 0.548 and 0.2872 and the “p-S6K(T389)/S6K, Mean” value (mTORC1 [4]; Luc-expressing cells, Fasnall 60', DMSO = 1 (ED Fig. 8h)) was 0.3861. For the same molecule, the “p-S6K(T389)/S6K” value (mTORC1 [4]; Luc-expressing cells, Fasnall 60') was 0.4934 and 0.1817 and 0.4832, the “p-S6K(T389)/S6K, Mean” value (mTORC1 [4]; RagA(QL)/C(SN)-expressing cells, Fasnall 30', DMSO = 1 (ED Fig. 8h)) was 0.4794 and the “p-S6K(T389)/S6K” value (mTORC1 [4]; RagA(QL)/C(SN)-expressing cells, Fasnall 30') was 0.6415 and 0.4768 and 0.3198. For the same molecule, the “p-S6K(T389)/S6K, Mean” value (mTORC1 [4]; RagA(QL)/C(SN)-expressing cells, Fasnall 60', DMSO = 1 (ED Fig. 8h)) was 0.4741, the “p-S6K(T389)/S6K” value (mTORC1 [4]; RagA(QL)/C(SN)-expressing cells, Fasnall 60') was 0.6662 and 0.3714 and 0.3847 and the “p-S6K(T389)/S6K, Mean” value (mTORC1 [4]; RagA/B KO HEK293FT, 25 μM Fasnall 30', respective DMSO = 1, n = 4, Fig. 5i) was 0.306. For the same molecule, the “p-S6K(T389)/S6K, Mean” value (mTORC1 [4]; RagA/B KO HEK293FT, 25 μM Fasnall 60', respective DMSO = 1, n = 4, Fig. 5i) was 0.3694, the “p-S6K(T389)/S6K, Mean” value (mTORC1 [4]; TSC1 KO HEK293FT, 25 μM Fasnall 30 min, respective DMSO = 1, n = 6, Fig. 5n) was 0.4771 and the “p-S6K(T389)/S6K, Mean” value (mTORC1 [4]; WT HEK293FT, 25 μM Fasnall 30', respective DMSO = 1, n = 4, Fig. 5i) was 0.3695. For the same molecule, the “p-S6K(T389)/S6K, Mean” value (mTORC1 [4]; WT HEK293FT, 25 μM Fasnall 60', respective DMSO = 1, n = 4, Fig. 5i) was 0.3619, the “p-S6K(T389)/S6K, Mean” value (mTORC1 [4]; WT HEK293FT, 25 μM Fasnall 30 min, respective DMSO = 1, n = 6, Fig. 5n) was 0.3275 and the “p-S6K(T389)/S6K, Mean” value (mTORC1 [5]; ED Fig. 7b, AMPKa1/2 KO, 30', relative to AMPKa1/2 KO DMSO) was 0.6838. The “p-S6K(T389)/S6K, Mean” value (mTORC1 [5]; ED Fig. 7b, AMPKa1/2 KO, 60', relative to AMPKa1/2 KO DMSO) was 0.7858, the “p-S6K(T389)/S6K, Mean” value (mTORC1 [5]; ED Fig. 7b, WT, 30', relative to WT DMSO) was 0.4433 and the “p-S6K(T389)/S6K, Mean” value (mTORC1 [5]; ED Fig. 7b, WT, 60', relative to WT DMSO) was 0.4902. For the same molecule, the “p-S6K(T389)/S6K, Mean” value (mTORC1 [5]; ED Fig. 7g, DEPDC5+RagA/B KO, 30', relative to DEPDC5+RagA/B KO DMSO) was 0.2954, the “p-S6K(T389)/S6K, Mean” value (mTORC1 [5]; ED Fig. 7g, DEPDC5+RagA/B KO, 60', relative to DEPDC5+RagA/B KO DMSO) was 0.2391 and the “p-S6K(T389)/S6K, Mean” value (mTORC1 [5]; ED Fig. 7g, WT, 30', relative to WT DMSO) was 0.4545. The “p-S6K(T389)/S6K, Mean” value (mTORC1 [5]; ED Fig. 7g, WT, 60', relative to WT DMSO) was 0.4895.
